Data set [1] concerns the target T1, adenosine A2a receptor (A2aR) (Homo sapiens, UniProt P29274).
T1 construct: expressed in transfected cells; host or cells: CHO-K1
The data set is described as follows: Inhibition of adenosine A2a receptor cAMP signaling pathway in CHO-K1/A2aR cells (HTRF cAMP dynamic 2 kit). Type of data set: cell-based. The conditions noted are these: Table 1, 20 nM ethylcarbazole. The gist of the method: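 CHO-K1/A2aR cells (10^6 cells/mL) in HBSS with 20 mM HEPES, 0.1% BSA, rolipram and adenosine deaminase, exposed to compound (0.001024–10000 nM) for 30 min at RT. Then agonist "ethylcarbazole" at 20 nM final, 30 min RT. cAMP read by HTRF after 1 h in lysis buffer.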

The nature of data set [2]: Pharmacokinetics assay in mice after intragastrical administration (plasma, LC/MS/MS). Particulars: mouse, po, C57 mice (female), 2 mg/kg; for Vd/F: read-out: Apparent distribution volume Vz/F; for AUC: read-out: Area under curve AUC; for CL/F: read-out: Clearance CLz/F; for Cmax: read-out: Drug concentration in blood Cmax; for half-life: read-out: Half-life T1/2 (converted); for MRT: read-out: Residence time MRT. It counts as in vivo. On the procedure: Test Example 2. Pharmacokinetics assay of the compounds of the present disclosure in mice
Mice were used as test animals. The drug concentration in plasma at different time points was determined by LC/MS/MS method after intragastrical administration of the compounds of Example 1, Example 18 and Example 19 to mice. The pharmacokinetic behavior of the compounds of the present disclosure was studied and evaluated in mice.
Twenty-seven C57 mice (female) were purchased from Shanghai Jiesijie Laboratory Animal Co., LTD, with Certificate No.: SCXK (Shanghai) 2013-0006, and equally divided into 3 groups (9 mice per group).
A certain amount of the test compound was weighed, and added with 2.5% by volume of DMSO, 2.5% by volume of tween 80 and 95% by volume of normal saline to prepare a 0.1 mg/mL colorless, clear and transparent solution.
After an overnight fast, C57 mice were administered intragastrically with the test compounds at an administration dose of 2.0 mg/kg and an administration volume of 0.2 mL/10 g.
The mice were intragastrically administered with the compounds of Example 1, Example 18 and Example 19. 0.1 mL of blood (3 animals at each time point) was taken before administration and at 0.5, 1.0, 2.0, 4.0, 6.0, 8.0, 11.0 and 24.0 hours after administration. The samples were stored in heparinized tubes, and centrifuged for 10 minutes at 3,500 rpm to separate the plasma. The plasma samples were stored at −20° C., the mice was feed 2 hours after administration.
The content of the test compounds in the plasma of the mice after intragastrical administration of the test compounds at different concentrations was determined: 25 μL of the plasma obtained at each time point after administration was taken, added with 30 μL of the internal standard solution of camptothecin (100 ng/mL) and 200 μL of acetonitrile, vortex-mixed for 5 minutes, and centrifuged for 10 minutes (4000 rpm). 3 μL of the supernatant was taken for LC/MS/MS analysis.

Molecules are shown by their SMILES.

Three molecules from patent US20210032253A1, “PYRAZOLO[1,5-A][1,3,5]TRIAZINE-2-AMINE DERIVATIVE, PREPARATION METHOD THEREFOR AND MEDICAL USE THEREOF” (JIANGSU HENGRUI MEDICINE CO., LTD., priority 2018, published 2021) can be followed below.

T1 sequence (P29274 whole entry): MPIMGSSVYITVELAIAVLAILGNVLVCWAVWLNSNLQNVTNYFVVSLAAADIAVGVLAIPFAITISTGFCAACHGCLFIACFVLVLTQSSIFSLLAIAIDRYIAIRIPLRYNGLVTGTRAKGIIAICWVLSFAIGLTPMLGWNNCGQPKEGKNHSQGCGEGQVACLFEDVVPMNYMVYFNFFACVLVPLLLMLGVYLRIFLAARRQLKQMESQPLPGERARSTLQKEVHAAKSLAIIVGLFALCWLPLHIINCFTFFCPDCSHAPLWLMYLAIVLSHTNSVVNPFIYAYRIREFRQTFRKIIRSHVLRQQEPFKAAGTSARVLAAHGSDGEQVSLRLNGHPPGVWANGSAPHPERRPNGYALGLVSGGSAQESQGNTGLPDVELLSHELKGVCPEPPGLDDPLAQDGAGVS

One may read the IC50 as the midpoint of a concentration-inhibition curve. Low readings indicate higher potency, high ones lower potency. The term AUC denotes concentration integrated over time. As a reminder, the MRT is a mean duration of stay, worked out from the concentration-time curve. For `Cc1ccc(-c2nc(N)nc3c(Nc4cccc(CO[C@H]5CCOC5)n4)cnn23)o1` [Example 18, (S)-4-(5-Methylfuran-2-yl)-N^8-(6-(((tetrahydrofuran-3-yl)oxy)methyl)pyridin-2-yl)pyrazolo[1,5-a][1,3,5]triazine-2,8-diamine], half-maximal inhibition in data set [1] (IC50) was put at 0.87 nM. In data set [2], the Vd/F is 0.841 L/kg, the AUC was 4860 ng·h/mL, the CL/F is 6.83 mL/min/kg and the Cmax came out at 3180 ng/mL. Also, in data set [2], the half-life is 1.42 h and the MRT was 1.63 h.
With `Cc1ccc(-c2nc(N)nc3c(Oc4cccc(CO[C@H]5CCOC5)n4)cnn23)o1` [Example 19, (S)-4-(5-Methylfuran-2-yl)-8-((6-(((tetrahydrofuran-3-yl)oxy)methyl)pyridin-2-yl)oxy)pyrazolo[1,5-a][1,3,5]triazin-2-amine], the IC50 in data set [1] was 0.36 nM. Also, in data set [2], the Vd/F was 2.12 L/kg, the AUC was 2490 ng·h/mL, the CL/F worked out at 13.3 mL/min/kg and the Cmax was 2360 ng/mL. Further, in data set [2], the half-life is 1.85 h and the MRT turned out to be 1.24 h.
Molecule `Cc1ccc(-c2nc(N)nc3c(Cc4cccc(CO[C@H]5CCOC5)n4)cnn23)o1` [Example 1, (S)-4-(5-Methylfuran-2-yl)-8-((6-(((tetrahydrofuran-3-yl)oxy)methyl)pyridin-2-yl)methyl)pyrazolo[1,5-a][1,3,5]triazin-2-amine] came in with an IC50 in data set [1] of 0.33 nM. Also, in data set [2], the Vd/F worked out at 1.9 L/kg, the AUC turned out to be 724 ng·h/mL, the CL/F stood at 45.9 mL/min/kg and the Cmax came to 800 ng/mL. In addition, in data set [2], the half-life was 0.48 h and the MRT came to 0.85 h.
